This is an account of results in patent US10370336B2, “Phenyl-cyanoquinolinone PDE9 inhibitors” (Merck Sharp & Dohme Corp., priority 2015, dated 2019).

This experiment addresses human PDE9 enzyme (PDE9A2) (Homo sapiens (Human), UniProt O76083). The following applies: read-out: PDE9 IMAP Ki; IMAP FP assay, FAM-cGMP substrate 50 nM, apparent inhibition constant.

Sequence of human PDE9 enzyme (PDE9A2) (O76083 other isoform, or with tags, fused parts or gaps): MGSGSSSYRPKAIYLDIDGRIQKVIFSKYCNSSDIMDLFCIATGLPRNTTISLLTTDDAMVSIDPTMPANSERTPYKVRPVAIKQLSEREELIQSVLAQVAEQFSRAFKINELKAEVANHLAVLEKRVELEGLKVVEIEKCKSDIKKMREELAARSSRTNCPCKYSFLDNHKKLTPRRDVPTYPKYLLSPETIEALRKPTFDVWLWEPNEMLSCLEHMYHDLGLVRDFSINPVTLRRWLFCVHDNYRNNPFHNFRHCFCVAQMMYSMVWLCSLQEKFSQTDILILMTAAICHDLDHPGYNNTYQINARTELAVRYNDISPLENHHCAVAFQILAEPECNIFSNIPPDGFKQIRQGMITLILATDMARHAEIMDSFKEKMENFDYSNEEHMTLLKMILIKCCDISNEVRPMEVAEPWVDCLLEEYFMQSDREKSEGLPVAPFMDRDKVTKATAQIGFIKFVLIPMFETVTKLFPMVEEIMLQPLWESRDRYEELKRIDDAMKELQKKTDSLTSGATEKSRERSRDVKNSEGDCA
From the text: Dose-inhibition profiles for each compound were characterized by fitting the mP data to a four-parameter equation given below.

`Cc1ccc(-c2c(C#N)c(=O)[nH]c3ccccc23)cc1` [Example 1-9, 2-oxo-4-(p-tolyl)-1H-quinoline-3-carbonitrile]: the Ki came out at 8.9 nM.
